From article PMC6598531, “Appraisal of anti-protozoan activity of nitroaromatic benzenesulfonamides inhibiting carbonic anhydrases from Trypanosoma cruzi and Leishmania donovani” (Journal of Enzyme Inhibition and Medicinal Chemistry, 2019)
Values after ≈ are worked out from the molar mass of the structure shown. Read-outs that look alike come from different tables or passages of the source.

Tests used:
L. infantum = assay: growth inhibition of L. infantum promastigotes (resazurin); assay type: cell-based; settings: Leishmania infantum, 48 h; for MIC: promastigotes, 28 °C
in vitro = settings: mouse, RAW 264.7 macrophages
L. amazonensis = assay: growth inhibition of L. amazonensis promastigotes (resazurin); assay type: cell-based; settings: Leishmania amazonensis, 48 h; for MIC: promastigotes, 28 °C
T. cruzi Dm 28c = assay: growth inhibition of T. cruzi Dm28c epimastigotes (resazurin); assay type: cell-based; settings: Trypanosoma cruzi, 48 h; for MIC: epimastigotes, 28 °C
T. cruzi Y = assay: growth inhibition of T. cruzi Y epimastigotes (resazurin); assay type: cell-based; settings: Trypanosoma cruzi, 48 h, 28 °C
hCA II = hCA II (Homo sapiens, UniProt P00918); assay: stopped flow CO2 hydrase assay, hCA II inhibition
LdcCA = LdcCA (Leishmania infantum, UniProt A4HSV2); assay: biochemical
hCA I = hCA I (Homo sapiens, UniProt P00915); assay: stopped flow CO2 hydrase assay, hCA I inhibition
[1] = concentration which reduced the number of promastigotes by 50%
[2] = read-out: KI hCA II, stopped flow CO2 hydrase assay, mean from three assays
[3] = read-out: KI hCA I, stopped flow CO2 hydrase assay, mean from three assays

LdcCA, sequence (A4HSV2 1-306): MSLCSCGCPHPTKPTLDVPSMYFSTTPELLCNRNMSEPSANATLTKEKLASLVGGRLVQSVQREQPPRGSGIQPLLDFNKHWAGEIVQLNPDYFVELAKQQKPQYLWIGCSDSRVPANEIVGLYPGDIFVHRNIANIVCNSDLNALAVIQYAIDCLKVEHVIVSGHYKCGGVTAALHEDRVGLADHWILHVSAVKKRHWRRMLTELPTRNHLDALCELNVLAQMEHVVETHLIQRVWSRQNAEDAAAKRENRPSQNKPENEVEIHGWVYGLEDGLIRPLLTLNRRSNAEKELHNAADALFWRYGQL
hCA I, sequence (P00915 whole entry): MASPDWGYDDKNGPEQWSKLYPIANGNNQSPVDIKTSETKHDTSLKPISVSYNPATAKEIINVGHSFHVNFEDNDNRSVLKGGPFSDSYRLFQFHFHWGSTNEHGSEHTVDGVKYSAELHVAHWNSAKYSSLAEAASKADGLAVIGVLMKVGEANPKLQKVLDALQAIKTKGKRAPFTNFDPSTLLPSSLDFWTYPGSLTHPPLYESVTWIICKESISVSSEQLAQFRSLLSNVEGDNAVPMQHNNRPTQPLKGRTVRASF

## C[C@@H]1[C@H](O)[C@@H](C)/C=C/C=C/C=C/C=C/C=C/C=C/C=C/[C@H](O[C@@H]2O[C@H](C)[C@@H](O)[C@H](N)[C@@H]2O)C[C@@H]2O[C@](O)(C[C@@H](O)C[C@@H](O)[C@H](O)CC[C@@H](O)C[C@@H](O)CC(=O)O[C@H]1C)C[C@H](O)[C@H]2C(=O)O [Amp, amphotericin B, reference compound]
L. infantum; [1]
  IC50: 1.77 ± 0.35 µM
L. infantum
  MIC: 8 µM (≈ 7.39 µg/mL)
In vitro
  CC50 at 48 h: 1 µM
L. amazonensis; [1]
  IC50: 1.65 ± 0.28 µM
L. amazonensis
  MIC: 8 µM (≈ 7.39 µg/mL)

## O=C(Cn1ccnc1[N+](=O)[O-])NCc1ccccc1 [Bzn, benznidazole, reference compound]
T. cruzi Dm 28c; concentration which reduced the proliferation of epimastigotes by 50%
  IC50: 16.6 ± 1.51 µM
T. cruzi Dm 28c
  MIC: 32 µM (≈ 8.33 µg/mL)
T. cruzi Y
  MIC: 32 µM (≈ 8.33 µg/mL)
In vitro
  CC50 at 48 h: 115 ± 9.48 µM

## NS(=O)(=O)c1ccc(O)c([N+](=O)[O-])c1 [Compound 4]
T. cruzi Dm 28c
  MIC: > 256 µM
hCA II; [2]
  Ki: 0.24 µM
L. infantum
  MIC: > 400 µM
LdcCA
  SI (KI1/KI2) CA I/LdcCA: 4.3
  SI (KI1/KI2) CA II/LdcCA: 1.1
LdcCA; read-out: KI LdCA
  Ki: 0.21 µM
T. cruzi Y
  MIC: > 256 µM
In vitro
  CC50 at 48 h: 97.7 ± 11.1 µM
L. amazonensis
  MIC: > 400 µM
hCA I; [3]
  Ki: 0.91 µM

## NS(=O)(=O)c1cc([N+](=O)[O-])c(OC(=O)c2ccccc2)c([N+](=O)[O-])c1 [Compound 7]
hCA II; [2]
  Ki: 0.84 µM
LdcCA
  Ki: 4.68 µM
  SI (KI1/KI2) CA I/LdcCA: 1.0
  SI (KI1/KI2) CA II/LdcCA: 0.2
hCA I; [3]
  Ki: 4.79 µM

## Nc1cc(S(N)(=O)=O)cc([N+](=O)[O-])c1O [Compound 8, 3-amino-4-hydroxy-5-nitro-benzenesulfonamide]
T. cruzi Dm 28c
  MIC: > 256 µM
hCA II; [2]
  Ki: 0.61 µM
L. infantum
  MIC: > 400 µM
LdcCA
  SI (KI1/KI2) CA I/LdcCA: 13.4
  SI (KI1/KI2) CA II/LdcCA: 1.3
LdcCA; read-out: KI LdCA
  Ki: 0.46 µM
T. cruzi Y
  MIC: > 256 µM
In vitro
  CC50 at 48 h: > 256 µM
L. amazonensis
  MIC: > 400 µM
hCA I; [3]
  Ki: 6.18 µM

## NS(=O)(=O)c1cc(NC(=O)c2ccccc2)c(OC(=O)c2ccccc2)c([N+](=O)[O-])c1 [Compound 9]
hCA II; [2]
  Ki: 0.39 µM
LdcCA
  SI (KI1/KI2) CA I/LdcCA: 0.4
  SI (KI1/KI2) CA II/LdcCA: 0.1
LdcCA; read-out: KI LdCA
  Ki: 3.87 µM
hCA I; [3]
  Ki: 1.38 µM

## NS(=O)(=O)c1cc(NC(=O)c2ccc(F)cc2)c(OC(=O)c2ccc(F)cc2)c([N+](=O)[O-])c1 [Compound 10]
T. cruzi Dm 28c
  MIC: > 256 µM
hCA II; [2]
  Ki: 0.46 µM
L. infantum
  MIC: > 400 µM
LdcCA
  SI (KI1/KI2) CA I/LdcCA: 0.3
  SI (KI1/KI2) CA II/LdcCA: 0.1
LdcCA; read-out: KI LdCA
  Ki: 8.49 µM
T. cruzi Y
  MIC: > 256 µM
In vitro
  CC50 at 48 h: 180 ± 21.3 µM
L. amazonensis
  MIC: > 400 µM
hCA I; [3]
  Ki: 2.92 µM

## Cc1cc(C)[n+](-c2cc(S(N)(=O)=O)cc([N+](=O)[O-])c2O)c(C)c1 [Compound 11]
T. cruzi Dm 28c
  MIC: > 256 µM
hCA II; [2]
  Ki: 1.81 µM
L. infantum
  MIC: > 400 µM
LdcCA
  SI (KI1/KI2) CA I/LdcCA: >7.6
  SI (KI1/KI2) CA II/LdcCA: 0.3
LdcCA; read-out: KI LdCA
  Ki: 6.57 µM
T. cruzi Y
  MIC: > 256 µM
In vitro
  CC50 at 48 h: > 256 µM
L. amazonensis
  MIC: > 400 µM
hCA I
  Ki: > 50 µM

## NS(=O)(=O)c1cc(O)c(O)c([N+](=O)[O-])c1 [Compound 12]
hCA II; [2]
  Ki: 0.64 µM
LdcCA
  SI (KI1/KI2) CA I/LdcCA: 15.9
  SI (KI1/KI2) CA II/LdcCA: 1.6
LdcCA; read-out: KI LdCA
  Ki: 0.39 µM
hCA I; [3]
  Ki: 6.21 µM

## NS(=O)(=O)c1cc(NC(=O)Nc2ccccc2)c(O)c([N+](=O)[O-])c1 [Compound 13]
hCA II; [2]
  Ki: 2.78 µM
LdcCA
  SI (KI1/KI2) CA I/LdcCA: >47.2
  SI (KI1/KI2) CA II/LdcCA: 2.6
LdcCA; read-out: KI LdCA
  Ki: 1.06 µM

## NS(=O)(=O)c1cc(NC(=O)Nc2ccc(F)cc2)c(O)c([N+](=O)[O-])c1 [Compound 14]
hCA II; [2]
  Ki: 0.53 µM
LdcCA
  SI (KI1/KI2) CA I/LdcCA: 5.5
  SI (KI1/KI2) CA II/LdcCA: 0.5
LdcCA; read-out: KI LdCA
  Ki: 0.98 µM
hCA I; [3]
  Ki: 5.39 µM

## NS(=O)(=O)c1cc(NC(=O)Nc2ccc(C(F)(F)F)cc2)c(O)c([N+](=O)[O-])c1 [Compound 15]
hCA II
  Ki: 0.24 µM
LdcCA
  SI (KI1/KI2) CA I/LdcCA: 2.2
  SI (KI1/KI2) CA II/LdcCA: 0.1
LdcCA; read-out: KI LdCA
  Ki: 2.34 µM
hCA I; [3]
  Ki: 5.2 µM

## Cc1cc(NC(=O)Nc2cc(S(N)(=O)=O)cc([N+](=O)[O-])c2O)ccc1F [Compound 16]
hCA II; [2]
  Ki: 0.21 µM
LdcCA
  SI (KI1/KI2) CA I/LdcCA: 2.6
  SI (KI1/KI2) CA II/LdcCA: 0.1
LdcCA; read-out: KI LdCA
  Ki: 2.96 µM
hCA I; [3]
  Ki: 7.58 µM

## NS(=O)(=O)c1cc(NC(=O)Nc2c(F)c(F)c(F)c(F)c2F)c(O)c([N+](=O)[O-])c1 [Compound 17]
T. cruzi Dm 28c
  MIC: > 256 µM
hCA II; [2]
  Ki: 0.27 µM
L. infantum
  MIC: > 400 µM
LdcCA
  SI (KI1/KI2) CA I/LdcCA: 0.5
  SI (KI1/KI2) CA II/LdcCA: 0.2
LdcCA; read-out: KI LdCA
  Ki: 1.36 µM
T. cruzi Y
  MIC: > 256 µM
In vitro
  CC50 at 48 h: > 256 µM
L. amazonensis
  MIC: > 400 µM
hCA I; [3]
  Ki: 0.69 µM

## COc1cccc(NC(=O)Nc2cc(S(N)(=O)=O)cc([N+](=O)[O-])c2O)c1 [Compound 18]
T. cruzi Dm 28c
  MIC: > 256 µM
hCA II; [2]
  Ki: 5.15 µM
L. infantum
  MIC: > 400 µM
LdcCA
  SI (KI1/KI2) CA I/LdcCA: 8.6
  SI (KI1/KI2) CA II/LdcCA: 5.4
LdcCA; read-out: KI LdCA
  Ki: 0.95 µM
T. cruzi Y
  MIC: > 256 µM
In vitro
  CC50 at 48 h: > 256 µM
L. amazonensis
  MIC: > 400 µM
hCA I; [3]
  Ki: 8.21 µM

## NS(=O)(=O)c1cc(NC(=O)Nc2ccc3c(c2)OCO3)c(O)c([N+](=O)[O-])c1 [Compound 19]
T. cruzi Dm 28c
  MIC: > 256 µM
hCA II; [2]
  Ki: 4.33 µM
L. infantum
  MIC: > 400 µM
LdcCA
  SI (KI1/KI2) CA I/LdcCA: >24.6
  SI (KI1/KI2) CA II/LdcCA: 2.1
LdcCA; read-out: KI LdCA
  Ki: 2.03 µM
T. cruzi Y
  MIC: > 256 µM
In vitro
  CC50 at 48 h: 173 ± 10.4 µM
L. amazonensis
  MIC: > 400 µM

## Cc1cc(C)cc(NC(=O)Nc2cc(S(N)(=O)=O)cc([N+](=O)[O-])c2O)c1 [Compound 20]
hCA II; [2]
  Ki: 0.45 µM
LdcCA
  SI (KI1/KI2) CA I/LdcCA: 4.5
  SI (KI1/KI2) CA II/LdcCA: 0.2
LdcCA; read-out: KI LdCA
  Ki: 1.86 µM
hCA I; [3]
  Ki: 8.33 µM

## NS(=O)(=O)c1cc(NC(=O)Nc2cc(C(F)(F)F)cc(C(F)(F)F)c2)c(O)c([N+](=O)[O-])c1 [Compound 21]
T. cruzi Dm 28c
  MIC: > 256 µM
hCA II; [2]
  Ki: 1.72 µM
L. infantum
  MIC: > 400 µM
LdcCA
  SI (KI1/KI2) CA I/LdcCA: 1.6
  SI (KI1/KI2) CA II/LdcCA: 0.5
LdcCA; read-out: KI LdCA
  Ki: 3.65 µM
T. cruzi Y
  MIC: > 256 µM
In vitro
  CC50 at 48 h: > 256 µM
L. amazonensis
  MIC: > 400 µM
hCA I; [3]
  Ki: 5.99 µM

## NS(=O)(=O)c1cc(NC(=O)NCCc2ccccc2)c(O)c([N+](=O)[O-])c1 [Compound 22]
hCA II; [2]
  Ki: 3.08 µM
LdcCA
  SI (KI1/KI2) CA I/LdcCA: 10.8
  SI (KI1/KI2) CA II/LdcCA: 3.6
LdcCA; read-out: KI LdCA
  Ki: 0.86 µM
hCA I; [3]
  Ki: 9.29 µM

## NS(=O)(=O)c1cc(NC(=O)NCc2ccco2)c(O)c([N+](=O)[O-])c1 [Compound 23]
hCA II; [2]
  Ki: 2.53 µM
LdcCA
  SI (KI1/KI2) CA I/LdcCA: >49.0
  SI (KI1/KI2) CA II/LdcCA: 2.5
LdcCA; read-out: KI LdCA
  Ki: 1.02 µM

## CC(=O)OC[C@@H]1O[C@@H](OC(C)=O)[C@@H](NC(=O)Nc2cc(S(N)(=O)=O)cc([N+](=O)[O-])c2O)[C@H](OC(C)=O)[C@H]1OC(C)=O [Compound 24]
T. cruzi Dm 28c
  MIC: > 256 µM
hCA II; [2]
  Ki: 1.89 µM
L. infantum
  MIC: > 400 µM
LdcCA
  SI (KI1/KI2) CA I/LdcCA: 1.6
  SI (KI1/KI2) CA II/LdcCA: 0.5
LdcCA; read-out: KI LdCA
  Ki: 3.64 µM
T. cruzi Y
  MIC: > 256 µM
In vitro
  CC50 at 48 h: > 256 µM
L. amazonensis
  MIC: > 400 µM
hCA I; [3]
  Ki: 5.67 µM

## NS(=O)(=O)c1cc(NC(=O)N[C@@H]2C(O)O[C@@H](CO)[C@H](O)[C@H]2O)c(O)c([N+](=O)[O-])c1 (stereo partly shown) [Compound 25]
hCA II; [2]
  Ki: 0.86 µM
LdcCA
  SI (KI1/KI2) CA I/LdcCA: 1.7
  SI (KI1/KI2) CA II/LdcCA: 0.3
LdcCA; read-out: KI LdCA
  Ki: 2.97 µM
hCA I; [3]
  Ki: 4.92 µM
